Laboratory results: patent US20100249145A1, “Inhibitors of VEGF Receptor and HGF Receptor Signaling” (Methylgene, Inc., priority 2005, published 2010)
Blank lines part the entries; values can stand above or below the molecule they belong to.

How the values were obtained:
SKLMS cells = assay: In vivo solid tumor disease model, SKLMS xenograft; parameters: species or system female athymic CD 1 mice; settings: SKLMS40, 30 mg/kg once daily IP, vehicle DMSO
Source text: (§1) In Vivo Solid Tumor Disease Model
(§2) This test measures the capacity of compounds to inhibit solid tumor growth.
(§3) Tumor xenografts were established in the flank of female athymic CD 1 mice (Charles River Inc.), by subcutaneous injection of 1×10^6U87, A431 or SKLMS cells/mouse. Once established, tumors were then serially passaged s.c. in nude mice hosts. Tumor fragments from these host animals were used in subsequent compound evaluation experiments. For compound evaluation experiments female nude mice weighing approximately 20 g were implanted s.c. by surgical implantation with tumor fragments of ˜30 mg from donor tumors. When the tumors were approximately 100 mm^3 in size (˜7-10 days following implantation), the animals were randomized a separated into treatment and control groups. Each group contained 6-8 tumor-bearing mice, each of which was ear-tagged and followed individually throughout the experiment
(§4) Mice were weighed and tumor measurements are taken by calipers three times weekly, starting on Day 1. These tumor measurements were converted to tumor volume by the well-known formula (L+W/4)^34/3π. The experiment was terminated when the control tumors reached a size of approximately 1500 mm^3. In this model, the change in mean tumor volume for a compound treated group/the change in mean tumor volume of the control group (non-treated or vehicle treated)×100 (ΔT/ΔC) was subtracted from 100 to give the percent tumor growth inhibition (% TGI) for each test compound. In addition to tumor volumes, body weight of animals were monitored twice weekly for up to 3 weeks.
(§5) Regiment of administration was once daily.

HCT116 = assay: In vivo solid tumor disease model, HCT116 xenograft; parameters: species or system female athymic CD 1 mice; settings: HCT116, vehicle DMSO
U87 cells = assay: In vivo solid tumor disease model, U87 xenograft; parameters: species or system female athymic CD 1 mice; settings: U87MG
Source text: as §1, §2, §3, §4, §5

MKN74 = assay: In vivo solid tumor disease model, MKN74 xenograft; parameters: species or system female athymic CD 1 mice; settings: vehicle DMSO, 10 days
VEGF receptor KDR = molecular target: T1, VEGF receptor KDR (Homo sapiens, UniProt P35968); assay: In vitro receptor tyrosine kinase assay (DELFIA), VEGF receptor KDR; assay type: biochemical; settings: Table 30; ATP 0.6 uM, enzyme 5 nM; read-out: VEGF(enz.) (IC50)
T1 construct: made in house; host or cells: Sf9 cells (Spodoptera frugiperda), recombinant baculovirus

SW48 = assay: In vivo solid tumor disease model, SW48 xenograft; parameters: species or system female athymic CD 1 mice; settings: 30 mg/kg once daily IP, vehicle DMSO, 14 days
A549 = assay: In vivo solid tumor disease model, A549 xenograft; parameters: species or system female athymic CD 1 mice
[1] = molecular target: T2, recombinant human c-Met/HGF receptor (Homo sapiens, UniProt P08581); assay: In vitro receptor tyrosine kinase assay (DELFIA), c-Met/HGF receptor; assay type: biochemical; settings: Table 30; ATP 10 uM, enzyme 25 nM; read-out: C-Met (enz.) (IC50)
T2 construct: His tag (histidine tag from pBlueBacHis2A); made in house; host or cells: Hi-5 cells (Trichoplusia ni), recombinant baculovirus

TPR-MET fusion protein = TPR-MET fusion protein (Homo sapiens, UniProt P08581); assay: C-Met phosphorylation cell-based assay (MNNGHOS cells, immunoblot); settings: Table 30, 3 hours treatment, read-out: C-Met cell-based Y1230-34-35 tpr-met inhibition (IC50)
Source text: C-Met Phosphorylation Cell-Based Assay

DU145 = assay: In vivo solid tumor disease model, DU145 xenograft; parameters: species or system female athymic CD 1 mice; settings: vehicle DMSO, 10 days
A431 cells = assay: In vivo solid tumor disease model, A431 xenograft; parameters: species or system female athymic CD 1 mice; settings: 30 mg/kg once daily IP, vehicle DMSO
Source text: as §1, §2, §3, §4, §5

MDA-MB-231 = assay: In vivo solid tumor disease model, MDA-MB-231 xenograft; parameters: species or system female athymic CD 1 mice; settings: 75 mg/kg once daily PO, vehicle 0.5% CMC in acetate buffer (pH 4.0), 14 days
MNNG-HOS = assay: In vivo solid tumor disease model, MNNG-HOS xenograft; parameters: species or system female athymic CD 1 mice; settings: 14 days
MV4-11 = assay: In vivo solid tumor disease model, MV4-11 xenograft; parameters: species or system female athymic CD 1 mice; settings: 20 mg/kg once daily p.o., 14 days
[2] = 30 mg/kg once daily IP, 14 days
[3] = 15 mg/kg once daily IP, vehicle DMSO, 10 days
[4] = 30 mg/kg once daily IP, vehicle DMSO, 14 days
[5] = 100 mg/kg once daily PO, vehicle 5% DMSO - 1% Tween-80 in water, 14 days

T1 sequence (P35968 806-1356): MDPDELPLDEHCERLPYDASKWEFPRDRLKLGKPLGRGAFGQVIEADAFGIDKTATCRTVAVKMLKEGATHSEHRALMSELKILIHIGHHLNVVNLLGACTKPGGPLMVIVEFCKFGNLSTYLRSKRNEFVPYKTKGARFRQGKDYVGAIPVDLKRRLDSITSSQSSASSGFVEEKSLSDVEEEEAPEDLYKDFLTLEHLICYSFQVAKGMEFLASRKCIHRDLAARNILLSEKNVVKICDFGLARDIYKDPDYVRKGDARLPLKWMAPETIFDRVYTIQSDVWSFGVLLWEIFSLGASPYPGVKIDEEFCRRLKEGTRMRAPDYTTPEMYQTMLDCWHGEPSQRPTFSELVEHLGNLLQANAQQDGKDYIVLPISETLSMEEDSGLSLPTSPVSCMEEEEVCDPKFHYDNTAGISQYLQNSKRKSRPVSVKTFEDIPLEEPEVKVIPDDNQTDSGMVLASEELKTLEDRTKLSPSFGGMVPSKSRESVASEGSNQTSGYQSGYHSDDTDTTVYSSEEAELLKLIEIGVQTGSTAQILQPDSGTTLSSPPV
TPR-MET fusion protein, sequence (P08581 with tags, fused parts or gaps): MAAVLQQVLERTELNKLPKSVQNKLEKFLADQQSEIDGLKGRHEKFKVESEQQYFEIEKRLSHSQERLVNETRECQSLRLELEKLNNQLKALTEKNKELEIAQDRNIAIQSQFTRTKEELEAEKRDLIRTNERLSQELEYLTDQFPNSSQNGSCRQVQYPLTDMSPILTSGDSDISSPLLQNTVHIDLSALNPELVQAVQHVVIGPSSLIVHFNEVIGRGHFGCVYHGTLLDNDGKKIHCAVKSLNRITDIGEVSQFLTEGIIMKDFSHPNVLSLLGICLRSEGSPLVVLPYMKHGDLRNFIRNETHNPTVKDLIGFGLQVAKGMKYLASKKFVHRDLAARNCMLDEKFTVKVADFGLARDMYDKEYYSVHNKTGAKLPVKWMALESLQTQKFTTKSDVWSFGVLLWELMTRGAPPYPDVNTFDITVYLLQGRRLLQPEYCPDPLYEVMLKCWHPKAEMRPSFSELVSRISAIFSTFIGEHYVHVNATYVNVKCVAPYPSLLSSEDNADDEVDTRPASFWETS
T2 sequence (P08581 1078-1337): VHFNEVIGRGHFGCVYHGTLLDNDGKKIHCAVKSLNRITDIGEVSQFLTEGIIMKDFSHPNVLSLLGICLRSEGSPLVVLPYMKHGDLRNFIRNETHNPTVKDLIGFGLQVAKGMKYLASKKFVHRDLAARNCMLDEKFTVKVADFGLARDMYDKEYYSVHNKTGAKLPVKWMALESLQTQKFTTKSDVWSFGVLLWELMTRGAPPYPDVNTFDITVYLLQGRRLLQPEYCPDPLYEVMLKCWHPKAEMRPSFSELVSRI

Structure (SMILES): CN(C)C(=O)c1cc2nccc(Oc3ccc(NC(=S)NC(=O)Cc4ccccc4)cc3F)c2s1 [Example 1, 1-(4-(2-(Dimethylcarbamoyl)thieno[3,2-b]pyridin-7-yloxy)-3-fluorophenyl)-3-(2-phenylacetyl)thiourea]
Tumor Growth Inhibition (%) (SKLMS cells; 14 days): b (% TGI in the range of 50-74)
Tumor Growth Inhibition (%) (HCT116; [2]): c (% TGI in the range of 25-49)
Tumor Growth Inhibition (%) (U87 cells; [3]): c (% TGI in the range of 25-49)
Tumor Growth Inhibition (%) (U87 cells; 30 mg/kg once daily IP, vehicle DMSO, 7 days): c (% TGI in the range of 25-49)
Tumor Growth Inhibition (%) (U87 cells; [4]): c (% TGI in the range of 25-49)
Tumor Growth Inhibition (%) (U87 cells; 30 mg/kg once daily IP, vehicle DMSO, 14 days (a* footnote class)): a* (greater than 100% tumor growth inhibition (i.e., tumor shrinkage))
Tumor Growth Inhibition (%) (U87 cells; [5]): c (% TGI in the range of 25-49)
Tumor Growth Inhibition (%) (MKN74; 15 mg/kg once daily IP): d (% TGI in the range of 0-24)
Tumor Growth Inhibition (%) (MKN74; 30 mg/kg once daily IP): c (% TGI in the range of 25-49)
IC50 (VEGF receptor KDR): < 50 nM
Tumor Growth Inhibition (%) (SW48): b (% TGI in the range of 50-74)
Tumor Growth Inhibition (%) (A549; [4]): b (% TGI in the range of 50-74)

IC50 (VEGF receptor KDR): 250 to 500 nM
IC50 [1]: 50 to 250 nM
IC50 (TPR-MET fusion protein): 50 to 250 nM
Structure (SMILES): CCN(CC)C(=O)c1cc2nccc(Oc3ccc(NC(=S)NC(=O)Cc4ccccc4)cc3F)c2s1 [Example 7, 1-(4-(2-(diethylcarbamoyl)thieno[3,2-b]pyridin-7-yloxy)-3-fluorophenyl)-3-(2-phenylacetyl)thiourea]
Tumor Growth Inhibition (%) (HCT116; [2]): b (% TGI in the range of 50-74)
Tumor Growth Inhibition (%) (SW48): c (% TGI in the range of 25-49)

IC50 (VEGF receptor KDR): < 50 nM
Structure (SMILES): O=C(Cc1ccccc1)NC(=S)Nc1ccc(Oc2ccnc3cc(-c4ccccn4)sc23)c(F)c1 [Example 13, 1-(4-(2-(Pyridin-2-yl)thieno[3,2-b]pyridin-7-yloxy)-3-fluorophenyl)-3-(2-phenylacetyl)thiourea]
Tumor Growth Inhibition (%) (SKLMS cells; 10 days): b (% TGI in the range of 50-74)
Tumor Growth Inhibition (%) (U87 cells; [4]): a (% TGI in the range of 75-100)
Tumor Growth Inhibition (%) (SW48): d (% TGI in the range of 0-24)
Tumor Growth Inhibition (%) (DU145; 30 mg/kg once daily IP): d (% TGI in the range of 0-24)
Tumor Growth Inhibition (%) (A431 cells; 7 days): b (% TGI in the range of 50-74)

IC50 (VEGF receptor KDR): < 50 nM
Structure (SMILES): Cn1ccnc1-c1cc2nccc(Oc3ccc(NC(=S)NC(=O)Cc4ccccc4)cc3F)c2s1 [Example 15, N-(3-Fluoro-4-(2-(1-methyl-1H-imidazol-2-yl)thieno[3,2-b]pyridin-7-yloxy)phenylcarbamothioyl)-2-phenylacetamide]
Tumor Growth Inhibition (%) (SKLMS cells; 10 days): b (% TGI in the range of 50-74)
Tumor Growth Inhibition (%) (HCT116; 15 mg/kg once daily IP, 10 days): c (% TGI in the range of 25-49)
Tumor Growth Inhibition (%) (HCT116; 30 mg/kg once daily IP, 10 days): c (% TGI in the range of 25-49)
Tumor Growth Inhibition (%) (U87 cells; [3]): b (% TGI in the range of 50-74)
Tumor Growth Inhibition (%) (U87 cells; 15 mg/kg once daily IV, vehicle 50/50 DMSO:40/60 PEG/0.2 N HCl in saline, 10 days): b (% TGI in the range of 50-74)
Tumor Growth Inhibition (%) (U87 cells; 30 mg/kg once daily IP, vehicle DMSO, 10 days): b (% TGI in the range of 50-74)
Tumor Growth Inhibition (%) (U87 cells; [4]): b (% TGI in the range of 50-74)
Tumor Growth Inhibition (%) (U87 cells; 30 mg/kg once daily IV, vehicle 50/50 DMSO:40/60 PEG/0.2 N HCl in saline, 10 days): b (% TGI in the range of 50-74)
Tumor Growth Inhibition (%) (U87 cells; [5]): a (% TGI in the range of 75-100)
Tumor Growth Inhibition (%) (MKN74; 15 mg/kg once daily IP): c (% TGI in the range of 25-49)
Tumor Growth Inhibition (%) (MKN74; 30 mg/kg once daily IP): c (% TGI in the range of 25-49)
Tumor Growth Inhibition (%) (DU145; 15 mg/kg once daily IP): d (% TGI in the range of 0-24)
Tumor Growth Inhibition (%) (A549; [4]): b (% TGI in the range of 50-74)
Tumor Growth Inhibition (%) (A549; 50 mg/kg once daily PO, vehicle 5% DMSO - 1% Tween-80 in water, 11 days): c (% TGI in the range of 25-49)
Tumor Growth Inhibition (%) (A549; 75 mg/kg once daily PO, vehicle 5% DMSO - 1% Tween-80 in water, 10 days): b (% TGI in the range of 50-74)
Tumor Growth Inhibition (%) (A549; 75 mg/kg once daily PO, vehicle 5% DMSO - 1% Tween-80 in water, 12 days): c (% TGI in the range of 25-49)
Tumor Growth Inhibition (%) (A431 cells; 14 days): b (% TGI in the range of 50-74)

Structure (SMILES): Cn1cnc(-c2cc3nccc(Oc4ccc(NC(=S)NC(=O)Cc5ccccc5F)cc4F)c3s2)c1 [Example 137, N-(3-Fluoro-4-(2-(1-methyl-1H-imidazol-4-yl)thieno[3,2-b]pyridin-7-yloxy)phenylcarbamothioyl)-2-(2-fluorophenyl)acetamide]
Tumor Growth Inhibition (%) (MDA-MB-231): b (% TGI in the range of 50-74)

Structure (SMILES): COc1ccccc1CC(=O)NC(=S)Nc1ccc(Oc2ccnc3cc(-c4cn(C)cn4)sc23)c(F)c1 [Example 138, N-(3-Fluoro-4-(2-(1-methyl-1H-imidazol-4-yl)thieno[3,2-b]pyridin-7-yloxy)phenylcarbamothioyl)-2-(2-methoxyphenyl)acetamide]
Tumor Growth Inhibition (%) (MDA-MB-231): b (% TGI in the range of 50-74)

Structure (SMILES): Cn1cnc(-c2cc3nccc(Oc4ccc(NC(=S)NC(=O)Cc5ccc(F)cc5F)cc4F)c3s2)c1 [drawing 493]
Tumor Growth Inhibition (%) (MNNG-HOS; 40 mg/kg once daily p.o.): a (% TGI in the range of 75-100)

Structure (SMILES): Cn1cnc(-c2cc3nccc(Oc4ccc(NC(=S)NC(=O)Cc5ccc(F)cc5)cc4F)c3s2)c1 [drawing 494]
Tumor Growth Inhibition (%) (MNNG-HOS; 75 mg/kg once daily p.o.): a* (greater than 100% tumor growth inhibition (i.e., tumor shrinkage))

Structure (SMILES): CCn1cnc(-c2cc3nccc(Oc4ccc(NC(=S)NC(=O)Cc5ccccc5C)cc4F)c3s2)c1 [drawing 495]
Tumor Growth Inhibition (%) (MNNG-HOS; 20 mg/kg once daily p.o.): c (% TGI in the range of 25-49)

Structure (SMILES): C#Cc1ccccc1CC(=O)NC(=S)Nc1ccc(Oc2ccnc3cc(-c4cn(C)cn4)sc23)c(F)c1 [drawing 497]
Tumor Growth Inhibition (%) (MV4-11): a (% TGI in the range of 75-100)
